Laboratory results from publication PMC8541353, “A Novel Phenylpyrrolidine Derivative: Synthesis and Effect on Cognitive Functions in Rats with Experimental Ishemic Stroke” (Molecules, 2021).

How the values were obtained:
Assay type in all cases: in vivo, Wistar rats
intact animals [1] = assay: Open field test (OFT) in intact animals; settings: intact rats, day 7; compound 1 125 mg kg^−1, piracetam 300 mg kg^−1, intraperitoneally for 5 days; mean and SD
Description: (§1) Before the study, the intact animals were subjected to the hole-board test (HBT), weighed, and stratified into three uniform groups in terms of orientational/exploratory activity and weight. […] On day 7, we performed OFT (open field test), followed by LDB (light—dark box test) on day 8 (Scheme 3, Step 1). These tests assess the activity and describe the behavior of the animals. According to OFT, compound 1 decreased the vertical activity and the immobility time compared to the saline-treated group (Table 2).
(§2) Before conducting the experiments, the animals underwent the HBT and were allocated to groups based on their behavior score and weight. Kullback–Leibler divergence method for allocation based on two numerical parameters was used for allocation. We used a sum score for behavior tests and weight. Subsequently, two experimental series were performed. In the first series, rat behavior without stroke modeling after injection of compound 1 (experimental group, n = 10) or saline (control group, n = 10) was evaluated (Scheme 3a). […] Compound 1 was injected at a dose of 125 mg kg^−1 and an injection volume of 0.5 mL. […] For the experiments, the following predetermined exclusion criteria were used: (1) incomplete MCAO indicated by an incomplete lesion on magnetic resonance imaging (MRI) after 24 h [n = 4]and (2) post-operative weight loss of > 20% and severe animal condition within the first post-stroke 48 h [n = 3]. Animals reached humane endpoints based on the absence of nociceptive reflex withdrawal responses, hypothermia, and heart rate reduction to 100–150 beats min^−1. As steroid treatment could have influenced the experiment, rats were humanely euthanized according to the ethical protocol. The experiment design is presented in Scheme 3b.
(§3) In the first experimental series, the following test systems were used: HBT (OpenScience, Russia), OFT (OpenScience), and LDT (OpenScience). The design for the second experimental series was as follows. All rat behavioral changes were evaluated during the four weeks after stroke simulation. Individuals who performed these procedures were double-blinded. General neurological disorders were assessed using the modified neurological severity score (mNSS). Motor and cognitive impairment were evaluated using the following functional tests: BWT (OpenScience), HBT (OpenScience), and OFT (OpenScience). The BWT was performed between postoperative days 12 and 14. In this test, motor dysfunction in all four limbs was evaluated; specifically, the number of steps, errors, and slides were counted. The overall score was calculated using the following formula: score = errors + 0.5 × slides × 100/total number of steps [47]. The beam apparatus consists of 165 cm beams with a flat surface of 10 mm or 6 mm width, resting 100 cm above the table top on two poles. A black box is placed at the end of the beam as the finish point. Nesting material from home cages is placed in the black box to attract the rat to the finish point. A lamp (with 60-watt light bulb) is used at the start to stimulate the animals to move towards the end.

intact animals [2] = assay: Light-dark box test (LDB) in intact animals; settings: intact rats, day 8; compound 1 125 mg kg^−1, piracetam 300 mg kg^−1, intraperitoneally for 5 days; mean and SD
Description: as §1, §2, §3

rats with MCAO [3] = assay: Cerebral infarct volume by MRI in transient MCAO model; settings: for Infarct volume at 24 h: 24 h after MCAO, before treatment (group baseline); for Infarct volume by day 28: day 28 after MCAO, compound 1 125 mg kg^−1, piracetam 300 mg kg^−1 daily from 24 h to day 5, p = 0.17
Protocol: (§4) A MCAO animal model was used to characterize the effects of compound 1 on the development and resolution of stroke. At the baseline, we performed the MRI and hole-board test before MCAO surgery. Once animals recovered after the surgery, we stratified them based on their background psycho-emotional status and performed a control MRI to access whether the occlusion was sufficient or not. […] From 24 h to day 7, the neurological status was assessed daily according to the neurological scale (mNSS). By the end of day 7, animals underwent MRI. In addition, MRI was performed on days 14 and 28 (Shceme 3)The hole-board test was repeated on days 10 and 24. The degree of motor function impairment, the deficit of exploratory behavior, and the recovery process were assessed in the beam walking test (BWT), which was performed twice on days 12 and 14. An open field test was carried out on days 16 and 26.
as §2
The rats were anesthetized initially using 3% isoflurane and maintained with a mixture of 2–2.5% isoflurane and 97.5–98% atmospheric air (EZ-7000 Classic System, E-Z Anesthesia® Systems). […]
During the procedure, the rats were maintained under inhalation anesthesia as mentioned above. […] The volume of the hyperintensity ischemic stroke area was calculated by summing the areas of adjacent cross-sections using the following formula: Volume = (S1 + … + Sn) × (h + d), where S1, …, Sn are areas measured in n slices, h is the slice thickness, and d is the interval between slices.

rats with MCAO [4] = assay: Neurological deficit (mNSS) in MCAO model; settings: 24 h to day 7
Protocol: as §4, with “26. […]” for “26.”
In the first experimental series, the following test systems were used: HBT (OpenScience, Russia), OFT (OpenScience), and LDT (OpenScience). […] All rat behavioral changes were evaluated during the four weeks after stroke simulation. […] General neurological disorders were assessed using the modified neurological severity score (mNSS). Motor and cognitive impairment were evaluated using the following functional tests: BWT (OpenScience), HBT (OpenScience), and OFT (OpenScience). […]

Structure (SMILES) | Crossings (n) (intact animals [1]) | Grooming time (intact animals [1]) | Immobility duration (intact animals [1]) | Number of center sector crossings (center) (n) (intact animals [1]) | Vertical activity (n) (intact animals [1]) | Number of crossings (n) (intact animals [2]) | Number of peeking out events (n) (intact animals [2]) | Time spent in the light compartment (intact animals [2]) | Infarct volume at 24 h (rats with MCAO [3]) | Infarct volume by day 28 (rats with MCAO [3]) | Regression of neurological symptoms (rats with MCAO [4])
O=C(CN1CC(c2ccccc2)CC1=O)NCCS(=O)(=O)[O-].[K+] (stereo not shown) [Compound 1, potassium 2-[2-(2-oxo-4-phenylpyrrolidin-1-yl)acetamido]ethane-1-sulfonate] | 53.7 ± 10.3 n | 40.6 ± 33.2 s | 12.8 ± 8.4 s | 1.6 ± 0.6 n | 10.3 ± 4.3 n | 2.9 ± 1.2 n | 5.2 ± 2.8 n | 16.5 ± 8.3 s | 133.6 ± 24.1 mm^3 | 91.2 ± 18.9 mm^3 | 35%
NC(=O)CN1CCCC1=O [Piracetam, reference compound] | 65.4 ± 20.4 n | 14.4 ± 9.4 s | 16.0 ± 10.4 s | 1.4 ± 1.2 n | 15.9 ± 7.5 n | 3.7 ± 1.6 n | 4.8 ± 2.5 n | 26.3 ± 13.4 s | 128.5 ± 15.5 mm^3 | 86.0 ± 13.5 mm^3 | 25%
